Patent US8242170B2, “Use of cis-epoxyeicosatrienoic acids and inhibitors of soluble epoxide hydrolase to reduce cardiomyopathy” (The Regents of the University of California, priority 2005, dated 2012)
Entries after “also recorded” stand apart in the source; their conditions may differ.

Columns and labels:
[1] = tested on: TAC-mice (thoracic aortic constriction, cardiac hypertrophy); assay: Thoracic aortic constriction (TAC) mouse model of pressure overload cardiac hypertrophy; format: in vivo, mouse (C57B1/6J); settings: for Hypertrophic response, H&E-stained histologic sections (FIG. 2): 3 weeks, compound 950 15 mg/kg twice a day, AUDA-BE 3 mg/kg twice a day, in drinking water; for Cardiac hypertrophy after drug treatment: sEH inhibitor in drinking water for three weeks
Description: Ascending aortic constriction was performed in 8-week-old male C57B1/6J mice (Charles River, Wilmington, Mass.). Animals were anesthetized with intraperitoneal ketamine 50 mg/kg and xylazine 2.5 mg/kg, and aortic constriction was created via a left thoracotomy by placing a ligature securely around the ascending aorta and a 26-gauge needle and then removing the needle. Immediately after the surgery, animals with ascending aortic stenosis were randomized and placed in one of the following regimens for three weeks: (a) compound 950 in drinking water ([…]), (b) AUDA-BE in drinking water, or (c) no drug. Age-matched animals served as controls.
To assess systolic function, echocardiograms were performed using M-mode and two-dimensional measurements as described previously. The measurements represented the average of six selected cardiac cycles from at least two separate scans performed in random-blind fashion with papillary muscles used as a point of reference for consistency in level of scan. End diastole was defined as the maximal left ventricle diastolic dimension and end systole was defined as the peak of posterior wall motion. Fractional shortening (FS), a surrogate of systolic function, was calculated from left ventricle dimensions as follows: FS=((EDD−ESD)/EDD)×100%.
To compare myocyte size, hearts were removed and rinsed for 1 minute in 0.1 mol/L phosphate buffered saline (PBS) with 50 mmol/L KCl (pH 7.2) and subsequently fixed overnight at 4° C. in 4% paraformaldehyde prepared in PBS. Vibratome sections (100 μm) from similar areas of the left ventricles were stained in a 1:20 dilution of rhodamine phalloidin (Molecular Probes, Inc., Eugene, Oreg.) and imaged with a BioRad MRC1000 confocal scanning laser microscope (BioRad Laboratories, Hercules, Calif.). A minimum of 5 optical sections was collected from the free wall of the left ventricle of each animal with a Zeiss 60× NA 1.4 lens. All images used for myocyte measurements were collected with identical laser, iris, gain, and black level operating parameters. Myocyte widths were measured parallel to the direction of the sarcomeres from unbranched regions of the myocytes near an intercalated disk with the length/profile function. Data sets were then compared using Student t tests.
Thoracic aortic constrictions (“TACs”) were created in 8-week-old male C57B1/6J mice as described in Example 1, above, resulting in a chronic pressure overload induced cardiac hypertrophy. TAC-mice were randomized to receive either no therapy or one of two exemplar sEH inhibitors (compound 950 and AUDA-BE) in drinking water for a period of three weeks. […] This effect is independent of the anti-hypertensive action of the drugs, since the hearts were constantly exposed to the high afterload created by the aortic constriction.
All the mice were sacrificed at three weeks after the TAC was created.
FIG. 2 further compares hematoxylin and eosin (“H&E”)-stained histologic section of a sham-operated heart and of TAC-mouse hearts with or without sEHI treatment. […] We further assessed the chamber size and wall thickness in untreated TAC-mice compared to treated TAC-mice using echocardiography.

[2] = tested on: neonatal mouse cardiac myocytes; assay: Angiotensin II induced hypertrophy of primary neonatal mouse cardiac myocytes in culture; format: cell-based, mouse (C57B1/6J); settings: 48 hours of treatment with ANG II
Description: Single cardiac myocytes were isolated from 5 day old neonatal mice (C57B1/6J) as previously described (Nuss & Marban, J. Physiol. 479 (Pt 2):265-79 (1994); Chiamvimonvat et al., J. Physiol. 483 (Pt 2):307-18 (1995)). Mice were anesthetized with pentobarbital (40 mg/kg) intraperitoneally. Animals were sacrificed by decapitation and hearts excised under sterile conditions into a filter sterilized (0.2 μm) nominally Ca^2+-, bicarbonate-free Hanks HEPES-buffered solution, pH 7.4 at room temperature. Atrial and great vessel tissues were carefully removed. The ventricles were washed and minced in this Ca^2+-free buffered solution containing trypsin (Difco®, BD Diagnostic Systems, Sparks Md., 1.5 mg/ml), DNase (1 ml/100 ml of the enzyme solution). The tissues were then incubated with 2 ml of the enzyme solution and stirred continuously at 37° C. The supernatant was removed and the enzyme solution replaced at five-minute intervals. The supernatant obtained after the first 15 minutes was discarded. Thereafter, the supernatant was diluted 1:1 in bovine calf serum. The cells were centrifuged at 2000 r.p.m. for three minutes and resuspended in MEM culture medium (Invitrogen, Carlsbad, Calif.) containing 5% bovine calf serum (Invitrogen), penicillin G (sodium) and vitamin B12. The viability of the cells was assessed using the trypan blue dye exclusion test. […]

[3] = tested on: TAC-mice (thoracic aortic constriction, cardiac hypertrophy); assay: Thoracic aortic constriction (TAC) mouse model of pressure overload cardiac hypertrophy; format: in vivo, mouse (C57B1/6J); settings: after 3 and 6 weeks of follow up
[4] = target: T1, soluble epoxide hydrolase (sEH) (Homo sapiens, UniProt P34913); assay: Inhibition of soluble epoxide hydrolase activity; format: biochemical
T1 sequence (P34913 with tags, fused parts or gaps A5G/DEL257-257/G258W): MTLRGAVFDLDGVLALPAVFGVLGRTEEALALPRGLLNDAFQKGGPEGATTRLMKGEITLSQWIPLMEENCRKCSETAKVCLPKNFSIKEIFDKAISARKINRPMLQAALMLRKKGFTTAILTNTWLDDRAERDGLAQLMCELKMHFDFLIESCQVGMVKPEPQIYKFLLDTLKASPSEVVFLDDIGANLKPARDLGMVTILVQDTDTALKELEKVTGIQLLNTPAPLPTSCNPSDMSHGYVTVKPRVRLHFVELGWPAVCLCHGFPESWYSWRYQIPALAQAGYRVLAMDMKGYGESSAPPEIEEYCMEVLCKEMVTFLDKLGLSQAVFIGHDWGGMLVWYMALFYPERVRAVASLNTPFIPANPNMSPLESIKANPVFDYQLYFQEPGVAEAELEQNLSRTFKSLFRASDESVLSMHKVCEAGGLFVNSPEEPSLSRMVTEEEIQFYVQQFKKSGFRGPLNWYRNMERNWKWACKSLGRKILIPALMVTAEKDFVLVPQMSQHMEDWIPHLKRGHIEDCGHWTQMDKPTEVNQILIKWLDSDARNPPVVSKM
Text: Any of a number of standard assays for determining epoxide hydrolase activity can be used to determine inhibition of sEH. For example, suitable assays are described in Gill, et al., Anal Biochem 131, 273-282 (1983); and Borhan, et al., Analytical Biochemistry 231, 188-200 (1995)). Suitable in vitro assays are described in Zeldin et al., J. Biol. Chem. 268:6402-6407 (1993). Suitable in vivo assays are described in Zeldin et al., Arch Biochem Biophys 330:87-96 (1996). […]
The enzyme also can be detected based on the binding of specific ligands to the catalytic site which either immobilize the enzyme or label it with a probe such as dansyl, fluoracein, luciferase, green fluorescent protein or other reagent. […] The enzyme also can be detected based on the generation of fluorescent products following the hydrolysis of the epoxide. […]

Metabolic stability = format: in vitro ADME

Row | Activity as inhibitor of sEH [4] | Metabolic stability (Metabolic stability) | Structure (SMILES) | Hypertrophic response, H&E-stained histologic sections (FIG. 2) [1] | Development of cardiac hypertrophy and failure, M-mode echocardiography (FIG. 3) ([1]; after three weeks of treatment) | Cardiac hypertrophy, whole hearts (FIG. 1) ([1]; drinking water three weeks, sacrificed at three weeks after TAC) | Loss of organization of the myofibrils (myofibril disarray), anti-alpha actinin immunofluorescence (FIG. 4) ([1]; left ventricle sections, three weeks) | Cardiac hypertrophy after drug treatment [1] | Cell size of neonatal cardiac myocytes, ANG II plus compound versus ANG II alone [2] | Development of cardiac hypertrophy and failure, echocardiography [3]
1 |  |  | CCOCCOCCOCCCCCNC(=O)NC12CC3CC(CC(C3)C1)C2 [compound 950, Adamantan-1-yl-3-{5-[2-(2-ethoxyethoxy)ethoxy]pentyl}urea] | prevents the development of cardiac hypertrophy; also recorded: completely prevented | completely prevented the development of cardiac hypertrophy and failure | no evidence of cardiac hypertrophy | effects were prevented | almost complete resolution of cardiac hypertrophy | significant differences in the cell size | can prevent the development of cardiac hypertrophy and failure
2 |  |  | CCCCOC(=O)CCCCCCCCCCCNC(=O)NC12CC3CC(CC(C3)C1)C2 [AUDA-BE, 12-(3-Adamantan-1-yl-ureido)dodecanoic acid butyl ester] | prevents the development of cardiac hypertrophy; also recorded: completely prevented |  |  |  | almost complete resolution of cardiac hypertrophy |  | 
3 | particularly high activity on sEH | metabolically stable | CCCCCCCCCCCCNC(=O)NC12CC3CC(CC(C3)C1)C2 [ADU, N-Adamantyl-N′-dodecyl urea] |  |  |  |  |  |  | 
